{
  "source": "patent EP1228058B1",
  "about": "“BENZOPYRANYL GUANIDINE DERIVATIVES, PROCESS FOR PREPARATION THEREOF, AND PHARMACEUTICAL COMPOSITIONS CONTAINING THEM” (Dongbu Hannong Chemical Co., Ltd., priority 1999, dated 2001)",
  "key": {"[1]": {"test_system": "ischemic heart models of beagle dogs", "assay": "Heart protective (anti-ischemic) activity in ischemic heart models of anesthetized beagle dogs", "type": "in vivo", "conditions": "total dose 2 mg/kg infused i.v. over 40 min, 90 min occlusion, 5 h reperfusion", "method": "In order to determine whether the compounds of the formula 1 are protective for the ischemic hearts of larger animals, experiments determining the anti-ischemic effects of the compounds on beagle dogs were conducted as follows. The experiments on beagle dogs followed the method of Grover et al.' (G. J. Grover et al., J. Cardiovasc. Pharmacol. 25, 40 (1995)).\nAfter being anesthetized by an intravenous injection of pentobarbital at a dose of 35 mg/kg, male beagle dogs (8-12 kg) were further infused with pentobarbital sodium at a dose of 3-4 mg/kg through the right cephalic vein throughout the experiments, so as to keep the anesthesia constant. […] The heart rate was measured by a tachometer, such as that manufactured by Gould Inc., OH, U.S.A., identified as Biotachometer. In addition, all of the changes occurring during the experiment were continuously recorded through the Gould 2000 chart recorder, manufactured by Gould Inc.\nThe fifth intercostal space was incised to open the thorax and the LAD was separated from its surrounding tissues. […] The LAD part upstream of the silk ligature was isolated from adjacent tissues and the blood flow was measured quantitatively. […] Using polygraph such as Grass Model 7E, the electrocardiogram was measured and read (Lead II). […]"}, "Human LDL": {"test_system": "Human LDL", "assay": "Inhibition of copper-induced LDL oxidation (MDA, TBA method)", "type": "biochemical", "conditions": "CuSO4 10 uM, 18 hr", "method": "Human LDL (sigma) was dissolved in distilled water at a concentration of 1 mg/ml. LDL was dialyzed against three changes of phosphate-buffered solution before oxidation to remove EDTA (ethylenediamine tetraacetate) at 4 °C for 18 hr. EDTA-free LDL (100 ug LDL protein/ml) was incubated in EDTA-free phosphate-buffered solution at 37 °C for 18 hr in the presence of CuSO4 (10 uM) under pretreatment with the test compounds or tochopherol of which final concentrations were 10^-9, 10^-7, and 10^-5 M. Blank was incubated without CuSO^., and vehicle was used as a solvent group. Oxidation was stopped at 4 °C by addition of EDTA (200 uM).\nCopper (Cu^+2) facilitates the oxidation of LDL to produce malondialdehyde (MDA), thus the lipid peroxidation was determined by MDA quantification same as the above example 5 (1). The MDA quantification was estimated by reacting samples with 2-thiobarbituric acid (TBA) and measuring the absorbance at 530 nm. 1,1,3,3-Tetramethoxy propane (Sigma) was used as a standard agent, and calculated the quantity of MDA as nmol of MDA equivalents per mg protein. The inhibitory effect of the test compounds against the lipid peroxidation was evaluated by calculating MDA reduction rate of the test compounds compared with that of the control group."}, "diabetic rats": {"test_system": "diabetic rats", "assay": "Effects on MNCV (motor nerve conduction velocity) in diabetic rats", "type": "in vivo", "set-up": "MNCV (sec): unit not given here", "conditions": "30 mg/Kg, orally once a day", "method": "Diabetes was induced with i.p. (intra peritoneum) injection of streptozocin (65 mg/Kg) in rats, then test compounds dissolved in 2 ml of media (physiological saline: ethanol: tween 80 = 8:1:1), were orally administered once a day. Rats were anesthetized with halothane, then the sciatic nerve was exposed to measure MNCV. The nerve was stimulated at two points. The first stimulus electrode was inserted at proximal end, and second stimulating electrode was inserted at the sciatic notch. The coaxial needle electrode was inserted into interdigital muscle, then the muscle action potential induced by two point stimulation. The conduction velocity was calculated by dividing the distance between two stimulus points by the latency difference. Lipoic acid (100 mg/Kg) was used in comparison with the compound of formula 1 in recovery of impaired MNCV in diabetic rats. The recovery (%) of MNCV was calculated according to the following mathematical formula 4. [Mathematical formula 4] Recovery(%) =(MNCV of treated group - MNCV of diabetic rats)/(MNCV of normal control-MNCV of diabetic rats)x100 [formula]"}},
  "data": [
    {"smiles": "COC(OC)[C@@]1(C)Oc2ccc([N+](=O)[O-])cc2[C@H](NC(=NC#N)NCc2ccccc2)[C@H]1O", "note": "[Example 24, (2S, 3R, 4S)-N''-cyano-N-(6-nitro-3,4-dihydro-3-hydroxy-2-methyl-2-dimethoxymethyl-2H-benzopyran-4-yl)-N'-benzylguanidine]", "values": [
      {"measurement": "Anti-ischemic Activity (in vivo, dogs) (2 mg/kg/40 i.v.) min,i.v.) IZ/AAR (%)", "setting": "[1]", "value": 28.03, "unit": "%"}
    ]},
    {"smiles": "COC(OC)[C@@]1(C)Oc2ccc(N)cc2[C@@H](NC(=NC#N)NCc2ccccc2)[C@@H]1O", "note": "[Example 40, (2S, 3S, 4R)-N''-cyano-N-(6 - amino-3,4-dihydro-3-hydroxy-2-methyl-2-dimethoxymethyl-2H-benzopyran-4-yl)-N'-benzylguanidine]", "values": [
      {"measurement": "% Inhibition", "setting": "Human LDL; 10^-5 M", "value": 27.6, "unit": "%"},
      {"measurement": "% Inhibition", "setting": "Human LDL; 10^-7 M, 0.1 µM", "value": 24.3, "unit": "%"},
      {"measurement": "% Inhibition", "setting": "Human LDL; 10^-9 M, 0.001 µM", "value": 7.6, "unit": "%"},
      {"measurement": "MNCV (sec)", "setting": "diabetic rats; streptozocin diabetic rats", "value": 47.756},
      {"measurement": "Recovery (%)", "setting": "diabetic rats; MNCV, diabetic rats", "value": 63.0, "unit": "%"}
    ]}
  ]
}
